Measurements published in patent US6610289B2, “Mutated herpes simplex virus type 1 thymidine kinases and uses thereof” (The Board of Trustees of the University of Arkansas, priority 1998, dated 2003).
Where two headings read alike, the source gives them in different places.

Columns and labels:
HCT-116 cells = test: MTT cell viability, sensitivity to GCV killing, HCT-116 cell lines expressing HSV-1 TKs; assay type: cell-based, human; conditions: HCT-116, GCV 0-5 μM, 4 days, FIG. 3B
Description: Cells were plated in triplicate and exposed to 0, 0.05, 0.5 or 5 μM GCV for four days. Cell viabilities were determined using MTT dye. […] FIG. 3A: NIH3T3 cell lines, FIG. 3B: HCT-116 cell lines; parental cells (noTK, dark bands); Asp125TK (Asp-#, brick band); Glu-125TK (Glu-#, cross-hatch bands); Asn-125TK (Asn-#, gray bands); wild-type HSV-1 TK (WT-#, striped bands).
A Moloney murine leukemia virus derived plasmid for the expression of HSV-TK, termed pLENTK, has been previously constructed (24). A unique BspEI-MluI restriction fragment within the HSV-TK sequence of pLENTK contains the Gln-125 mutation site. This fragment was removed from wild-type plasmid and replaced with the analogous fragments encoding each mutant. […] Along with wild-type HSV-1 TK plasmid, each mutant-TK plasmid was transfected individually into the murine fibroblast cell line, NIH 3T3, and the human colon tumor cell line, HCT-116, using lipofectin reagent (GIBCO/BRL) (2 μg plasmid, 14 μl lipid per 1×10^6 cells). Cells were maintained in RPMI 1640 media and selected with G418 (200 μg/ml for 2 weeks) as previously described (24). At least eight individual G418 resistant cell clones were picked and grown up for further characterization. Each clone was screened initially for growth inhibition by 25 μM GCV. Those clones that were sensitive were further analyzed for HSV-TK protein expression by Western blot analysis with a polyclonal, rabbit anti-HSV-TK antibody (a gift from Dr. Margaret Black). For each clone, cell numbers were normalized to 1×10^6, and equal protein loading was confirmed for each sample by gel staining. Blotted HSV-1 TK protein bands were visualized on film using ECL chromophore reagents (Amersham). For analysis of GCV sensitivity of different clones, NIH3T3 and HCT-116 cell sets were seeded in 96 well plates in 0.1 ml media (15,000 cells/well). The next day, a dose range of GCV (0.005 to 5 mM, n=3) was added in 0.1 ml media. After 4 days, MTT ([…]) was added for 1.5 hours, followed by DMSO solubilization of the cells and absorbance reading at 540 nm (25).
cDNA for each mutant was incorporated into a Moloney murine leukemia virus plasmid (24). The plasmids for wild-type HSV-1 TK and each mutant were individually transfected into either NIH3T3 cells or the human colon tumor cell line, HCT-116. Following drug selection in G418, individual cell clones were evaluated for sensitivity to GCV and relative levels of HSV-1 TK expression. Using an HSV-1 TK antibody and extracts normalized by protein and cell number, the relative expression levels of HSV-1 TK in each cell clone were determined.

HSV-1 TK [1] = biological target: T1, HSV-1 TK (Human herpesvirus 1, UniProt P0DTH5, Q125D); assay type: biochemical, herpes simplex virus type 1; conditions: substrate GCV
T1 construct: made in house; host or cells: E. coli BL21SY211 (pET-9a derived pET-TK plasmids)
T1 sequence (P0DTH5 1-376 Q125D): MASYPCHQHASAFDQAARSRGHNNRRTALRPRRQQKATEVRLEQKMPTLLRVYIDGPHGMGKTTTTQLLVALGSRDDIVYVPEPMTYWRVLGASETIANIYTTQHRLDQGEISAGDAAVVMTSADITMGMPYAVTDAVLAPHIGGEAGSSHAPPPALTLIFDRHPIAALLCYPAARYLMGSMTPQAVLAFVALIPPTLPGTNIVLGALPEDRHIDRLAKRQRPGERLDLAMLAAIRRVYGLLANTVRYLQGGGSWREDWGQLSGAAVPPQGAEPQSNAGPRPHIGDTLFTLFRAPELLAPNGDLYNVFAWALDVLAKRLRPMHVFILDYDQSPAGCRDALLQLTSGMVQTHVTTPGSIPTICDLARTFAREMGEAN
Description: (§1) For determination of Km values of thymidine and GCV for the four enzymes, the filter binding assay was utilized. The basic reaction components were as above, and the following enzyme concentrations, substrate ranges and times were used under linear initial velocity conditions: for [^3H]thymidine: parent Gln-125TK: 0.1 μg TK, 0.1-4 μM, 10 min; Asn-125TK: 0.2 μg TK, 0.25-10 μM, 15 min; Asp-125TK: 4 μg TK, 0.1-2.5 μM, 30 min; Glu-125TK 0.5 μg TK, 0.5-2.5 μM, 15 min. For [^3H]GCV: parent Gln-125TK: 2 μg TK, 5-100 μM, 15 min; Asn-125TK: 0.6 μg TK, 0.5-15 μM, 15 min; Asp-125TK: Not determined; Glu-125TK 4 μg TK, 50-1000 μM, 25 min. Each reaction was done in triplicate. For calculation of kinetic constants, non-linear regression Michaelis-Menten analyses were done using PSI-PLOT version 5.0 (Poly Software International).
(§2) Unlike the substrate screening assays presented in Table 1, linear velocity conditions for each enzyme and substrate were established prior to Km determinations.

HSV-1 TK [2] = assay type: biochemical, herpes simplex virus type 1; conditions: substrate thymidine
Description: as §1, §2

HSV-1 TK [3] = test: Substrate screen: phosphorylation of thymidine, TMP, GCV, ACV, dC, AZT by partially purified HSV-1 TKs; assay type: biochemical, herpes simplex virus type 1
Description: The activity of the purified HSV-1 TK was determined using the following standard reaction mixture for thymidine as a substrate (12): 3 μg of protein, 4 μM [^3H-methyl]thymidine (0.1 mCi/mmol), 20 mM potassium phosphate, pH 7.6, 1 mM DTT, 5 mM ATP, 5 mM MgCl2, 25 mM NaF, 40 mM KCl, and 0.5 mg/ml BSA in a total volume of 25 μl for 10 minutes at 37° C. To identify phosphorylated products, 20 μl of the reaction mixture was loaded onto a DE-81 filter and dried, washed once in 1 mM ammonium formate, twice more in 95% ethanol, and counted for radioactivity (12). Radioactivity was determined using an LKB 1214 Rackbeta liquid scintillation counter and corrected for background using controls with enzyme incubated in the absence of ATP. For TMPK activity, 20 μM [^3H-methyl]TMP was substituted for thymidine in the above assay mixture, and [^3H]TDP product was determined by separation from [^3H]TMP on thin layer PEI-cellulose plates developed in 0.35M LiCl (21). Amount of product converted to TDP was quantitated by scintillation counting of the excised TMP and TDP spots. The filter binding assay was used to quantitate the phosphorylation of [^3H]dC (200) μM and [^3H]AZT (200 μM) with the four enzymes. To compare relative enzymatic activities for [^3H]GCV (50 μM) and [^3H]ACV (50 μM), reactions were loaded onto small DE-52 columns packed in Pasteur pipettes as previously described (22).
As an initial screen for activity, each expressed HSV-1 TK enzyme was assayed for phosphorylation of the following substrates: thymidine (4 μM), TMP (20 μM), ACV (50 μM), GCV (50 μM), deoxycytidine (dC, 200 μM), or 3′-azido-2′,3′dideoxythymidine (AZT, 200 μM). Enzymatic conditions for optimal wild-type HSV-1 TK activities were utilized, thus results presented in Table 1 for each substrate were normalized to 100% values for comparative purposes. As expected, the wild-type Gln-125 HSV-1 TK efficiently phosphorylated each of these substrates. For each mutant, there was a striking decrease in their ability to phosphorylate pyrimidine nucleosides, and minimal TMPK activity for the TMP substrate.

For Asp-125, the “Dose dependent cell killing by GCV (cell viability, MTT)” value (HCT-116 cells) was “little effect on cell viability”, the “Ganciclovir phosphorylation kinetics (in words)” value (HSV-1 TK [1]) was “poorly phosphorylate ganciclovir, but with non-linear kinetics” and the “Ganciclovir phosphorylation kinetics (in words)” value (HSV-1 TK [1]; listed as Asp-125TK) was “no linear velocity conditions could be established”. For the same substance, the “Change of kcat for thymidine relative to wild-type (in words)” value (HSV-1 TK [2]) was “doubled”, the “Increase of Km for thymidine relative to wild-type enzyme” value (HSV-1 TK [2]) was about 6000 fold and the kcat thymidine (HSV-1 TK [2]) was 0.11 s⁻¹. The Km (HSV-1 TK [2]; read-out: Km thymidine) was 6 mM, the “Product formation ACVMP” value (HSV-1 TK [3]; substrate ACV 50 μM) was 14 % of wild-type Gln-125 and the “Product formation AZTMP” value (HSV-1 TK [3]; substrate AZT 200 μM) was 8 % of wild-type Gln-125. For the same substance, the “Product formation GCVMP” value (HSV-1 TK [3]; substrate GCV 50 μM) was 0.7 % of wild-type Gln-125, the “Product formation TDP (TMPK activity)” value (HSV-1 TK [3]; substrate TMP 20 μM) was 4 % of wild-type Gln-125 and the “Product formation dCMP” value (HSV-1 TK [3]; substrate dC 200 μM) was >0.1 % of wild-type Gln-125. The “Product formation TMP” value (HSV-1 TK [3]; substrate thymidine 4 μM) was 0.5 % of wild-type Gln-125.
